Consider two compounds from patent publication US11173144B2, “Adrenergic receptor modulating compounds and methods of using the same” (The Board of Trustees of the Leland Stanford Junior …, priority 2016, dated 2021).

Data set [1] in a line: Plasma versus brain concentration after subcutaneous administration in mice. The following applies: mouse, in vivo. Here is the method:
The concentration of selected compounds in plasma (FIG. 8A) versus concentration in brain (FIG. 8A) was assessed after administration in a mice. Briefly, mice are administered with selected compounds via subcutaneous route. Thirty minutes after the compound administration, plasma and brain samples are collected. Concentrations of the selected compounds in plasma and brains are determined by LC/MS/MS.

The test system of the next data set is C57BI/6J female mice. As to the kind of experiment: 24 day administration, lung and heart weight and fibrosis. The data set is classed as in vivo. The following applies: 10 mg/kg for 24 days. Here is the method:
C57BI/6J female mice were administered with isoproterenol, KSN01-01-15, or KSN01-01-18 at 10 mg/kg for 24 days. After 24 days of treatment, mice were sacrificed, and lung and heart weight were measured. Hearts were then fixed in 10% formalin, and stained with Masson trichrome for evaluation of fibrosis.

The test system of data set [2] is Transgenic mice expressing amyloid beta protein precursor (APP). In words: Morris water maze in transgenic mice expressing amyloid beta protein precursor (APP). The data set is classed as in vivo. The following applies: 10 mg/kg subcutaneous, chronic. How it is done: Mice are tested in a large water tank (178 cm in diameter; 22.0±1.5° C.) with a submerged 17 cm diameter circular platform (˜1 cm below the water surface and ˜50 cm away from the wall). Non-toxic tempera paints (Elmers) are used to make the water opaque. Privacy blinds with four different visual cues surrounded the tank and are located ˜150 cm from the center of the tank. Testing is performed under dim white light (40 Lux at the water surface). Activity is monitored with Ethovision via an overhead video system. Mice complete 4-6 days of hidden platform training (60 seconds to locate the platform when released from a pseudorandomized drop location). […] Successful leaming of MWM is determined by reduced escape latency and discriminative quadrant exploration during the probe trial. […]
Transgenic mice expressing amyloid beta protein precursor (APP) and wild-type mice were chronically administered with KSN01-01-18 (10 mg/kg, subcutaneous). Changes on body weight were recorded. Effects of KSN01-01-18 on cognitive function were evaluated in Morris water maze (MWM). […] Successful learning of MWM was determined by the gradual decrease in escape latency during the hidden platform training and discriminative quadrant exploration and latency to reach virtual platform during the probe trial.

The nature of data set [3]: Body weight changes on chronic administration in mice. The following applies: 10 mg/kg subcutaneous. In kind it is in vivo. Here is the method: Transgenic mice expressing amyloid beta protein precursor (APP) and wild-type mice were chronically administered with KSN01-01-18 (10 mg/kg, subcutaneous). Changes on body weight were recorded. Effects of KSN01-01-18 on cognitive function were evaluated in Morris water maze (MWM). Briefly, In the MWM, a large water tank (178 cm in diameter) filled with water was used. A circular platform was placed about 1 cm below the water surface approximately 17 cm away from the wall in one 20 quadrant of the tank. Nontoxic tempera paints were used to make the water opaque. During the consecutive days of hidden platform training, mice were released from drop locations and given 60 sec to find the platform. Upon completion of the hidden platform training, the platform was removed and a 60-sec probe trial was conducted. Successful learning of MWM was determined by the gradual decrease in escape latency during the hidden platform training and discriminative quadrant exploration and latency to reach virtual platform during the probe trial.

As to `Cc1n[nH]c2cccc(OC[C@@H](O)CNCCNC(=O)N3CCOCC3)c12` [Compound 38], the “crossing the blood brain barrier” value in data set [1] is reported as “not capable of crossing the blood brain barrier”.
With `Cc1n[nH]c2cccc(OC[C@@H](O)CNCc3ccn(C)n3)c12` [Compound 92], in the data set with C57BI/6J female mice, the “fibrotic changes in heart and heart weight” value was “did not induce these changes”; the “fibrotic changes in lung and lung weight” value was “did not induce these changes”; the “morphological changes in heart” value is given as “did not induce these changes”. The “cognitive function in Morris water maze (time to find the virtual platform)” value in data set [2] is “cognitive enhancing effects”. The “general toxicity as measured by changes in body weight” value in data set [3] is recorded as “does not cause general toxicity”.
